The subject of experiment [1] is BV-2. Description: Inhibition of NO production in LPS-activated mouse BV2 cells by […]. It is filed as functional, cell-based.
Experiment [2] deals with BV-2. Description: Inhibition of NF-kappaB activity in LPS-stimulated mouse BV2 cells at 10 uM after 1 hr by luciferase reporter gene assay. It counts as cell-based.
Experiment [3] concerns BV-2. As to the kind of experiment: Inhibition of COX2 mRNA expression in LPS-stimulated mouse BV2 cells at 20 uM after 4 hrs by RT-PCR. It counts as functional, cell-based.
Experiment [4] concerns BV-2. As to the kind of experiment: Inhibition of IkappaB alpha degradation in LPS-induced mouse BV2 cells at 20 uM after 30 mins by Western blot analysis. It counts as functional, cell-based.
Experiment [5] deals with BV-2. Description: Inhibition of COX2 expression in LPS-stimulated mouse BV2 cells after 20 hrs by Western blot analysis. It counts as functional, cell-based.
Experiment [6] concerns BV-2. As to the kind of experiment: Inhibition of iNOS expression in LPS-stimulated mouse BV2 cells at 20 uM after 20 hrs by Western blot analysis. It is filed as functional, cell-based.
Experiment [7] deals with BV-2. Description: Inhibition of iNOS mRNA expression in LPS-stimulated mouse BV2 cells at 20 uM after 4 hrs by RT-PCR. It is filed as functional, cell-based.

The text below walks through data of ChEMBL document CHEMBL1143228, “Inhibition of lipopolysaccharide-induced inducible nitric oxide synthase and cyclooxygenase-2 expression by xanthanolides isolated from Xanthium strumarium” (Bioorg Med Chem Lett, 2008).

Calls of active or inactive are those of the source. The calls are words filed in the database; no cut-off is given here.

`C=C(C(=O)O)[C@H]1CC=C(/C=C/C(C)=O)[C@@H](C)CC1` had an IC50 in the experiment on BV-2 [1] of 136 µM.

In the case of `C=C1C(=O)O[C@H]2C[C@H](C)C(/C=C/C(C)=O)=CC[C@H]12`, the outcome in the experiment with BV-2 [2], with BV-2 [3], with BV-2 [4], in the experiment with BV-2 [5], in the experiment on BV-2 [6] and with BV-2 [7] was Active. In the experiment with BV-2 [1], this compound registered an IC50 of 0.47 µM.

In the case of `C=C1C(=O)O[C@H]2C[C@H](C)C(CCC(C)=O)=CC[C@H]12`, the outcome in the experiment with BV-2 [3], with BV-2 [4], with BV-2 [5], in the experiment on BV-2 [6] and in the experiment on BV-2 [7] was Active. Besides, in the experiment with BV-2 [1], the IC50 turned out to be 11.2 µM.
